From patent publication US20250114356A1, “INDAZOLE BASED COMPOUNDS AND ASSOCIATED METHODS OF USE” (Arvinas Operations, Inc., priority 2020, published 2025)

Assays:
G2019S LRRK2 = biological target: T1, G2019S LRRK2 (Homo sapiens, UniProt Q5S007, G2019S); test: LRRK2 degradation assay, G2019S LRRK2-HiBit expressed from plasmid in HEK293 cells; assay type: cell-based; conditions: HEK293 cells transfected with HiBit-tagged G2019S LRRK2, 24 hours compound incubation
T1 construct: expressed in transfected cells; host or cells: HEK293 (ATCC CRL-1573), transient transfection, ubiquitin promoter
T1 sequence (Q5S007 whole entry G2019S): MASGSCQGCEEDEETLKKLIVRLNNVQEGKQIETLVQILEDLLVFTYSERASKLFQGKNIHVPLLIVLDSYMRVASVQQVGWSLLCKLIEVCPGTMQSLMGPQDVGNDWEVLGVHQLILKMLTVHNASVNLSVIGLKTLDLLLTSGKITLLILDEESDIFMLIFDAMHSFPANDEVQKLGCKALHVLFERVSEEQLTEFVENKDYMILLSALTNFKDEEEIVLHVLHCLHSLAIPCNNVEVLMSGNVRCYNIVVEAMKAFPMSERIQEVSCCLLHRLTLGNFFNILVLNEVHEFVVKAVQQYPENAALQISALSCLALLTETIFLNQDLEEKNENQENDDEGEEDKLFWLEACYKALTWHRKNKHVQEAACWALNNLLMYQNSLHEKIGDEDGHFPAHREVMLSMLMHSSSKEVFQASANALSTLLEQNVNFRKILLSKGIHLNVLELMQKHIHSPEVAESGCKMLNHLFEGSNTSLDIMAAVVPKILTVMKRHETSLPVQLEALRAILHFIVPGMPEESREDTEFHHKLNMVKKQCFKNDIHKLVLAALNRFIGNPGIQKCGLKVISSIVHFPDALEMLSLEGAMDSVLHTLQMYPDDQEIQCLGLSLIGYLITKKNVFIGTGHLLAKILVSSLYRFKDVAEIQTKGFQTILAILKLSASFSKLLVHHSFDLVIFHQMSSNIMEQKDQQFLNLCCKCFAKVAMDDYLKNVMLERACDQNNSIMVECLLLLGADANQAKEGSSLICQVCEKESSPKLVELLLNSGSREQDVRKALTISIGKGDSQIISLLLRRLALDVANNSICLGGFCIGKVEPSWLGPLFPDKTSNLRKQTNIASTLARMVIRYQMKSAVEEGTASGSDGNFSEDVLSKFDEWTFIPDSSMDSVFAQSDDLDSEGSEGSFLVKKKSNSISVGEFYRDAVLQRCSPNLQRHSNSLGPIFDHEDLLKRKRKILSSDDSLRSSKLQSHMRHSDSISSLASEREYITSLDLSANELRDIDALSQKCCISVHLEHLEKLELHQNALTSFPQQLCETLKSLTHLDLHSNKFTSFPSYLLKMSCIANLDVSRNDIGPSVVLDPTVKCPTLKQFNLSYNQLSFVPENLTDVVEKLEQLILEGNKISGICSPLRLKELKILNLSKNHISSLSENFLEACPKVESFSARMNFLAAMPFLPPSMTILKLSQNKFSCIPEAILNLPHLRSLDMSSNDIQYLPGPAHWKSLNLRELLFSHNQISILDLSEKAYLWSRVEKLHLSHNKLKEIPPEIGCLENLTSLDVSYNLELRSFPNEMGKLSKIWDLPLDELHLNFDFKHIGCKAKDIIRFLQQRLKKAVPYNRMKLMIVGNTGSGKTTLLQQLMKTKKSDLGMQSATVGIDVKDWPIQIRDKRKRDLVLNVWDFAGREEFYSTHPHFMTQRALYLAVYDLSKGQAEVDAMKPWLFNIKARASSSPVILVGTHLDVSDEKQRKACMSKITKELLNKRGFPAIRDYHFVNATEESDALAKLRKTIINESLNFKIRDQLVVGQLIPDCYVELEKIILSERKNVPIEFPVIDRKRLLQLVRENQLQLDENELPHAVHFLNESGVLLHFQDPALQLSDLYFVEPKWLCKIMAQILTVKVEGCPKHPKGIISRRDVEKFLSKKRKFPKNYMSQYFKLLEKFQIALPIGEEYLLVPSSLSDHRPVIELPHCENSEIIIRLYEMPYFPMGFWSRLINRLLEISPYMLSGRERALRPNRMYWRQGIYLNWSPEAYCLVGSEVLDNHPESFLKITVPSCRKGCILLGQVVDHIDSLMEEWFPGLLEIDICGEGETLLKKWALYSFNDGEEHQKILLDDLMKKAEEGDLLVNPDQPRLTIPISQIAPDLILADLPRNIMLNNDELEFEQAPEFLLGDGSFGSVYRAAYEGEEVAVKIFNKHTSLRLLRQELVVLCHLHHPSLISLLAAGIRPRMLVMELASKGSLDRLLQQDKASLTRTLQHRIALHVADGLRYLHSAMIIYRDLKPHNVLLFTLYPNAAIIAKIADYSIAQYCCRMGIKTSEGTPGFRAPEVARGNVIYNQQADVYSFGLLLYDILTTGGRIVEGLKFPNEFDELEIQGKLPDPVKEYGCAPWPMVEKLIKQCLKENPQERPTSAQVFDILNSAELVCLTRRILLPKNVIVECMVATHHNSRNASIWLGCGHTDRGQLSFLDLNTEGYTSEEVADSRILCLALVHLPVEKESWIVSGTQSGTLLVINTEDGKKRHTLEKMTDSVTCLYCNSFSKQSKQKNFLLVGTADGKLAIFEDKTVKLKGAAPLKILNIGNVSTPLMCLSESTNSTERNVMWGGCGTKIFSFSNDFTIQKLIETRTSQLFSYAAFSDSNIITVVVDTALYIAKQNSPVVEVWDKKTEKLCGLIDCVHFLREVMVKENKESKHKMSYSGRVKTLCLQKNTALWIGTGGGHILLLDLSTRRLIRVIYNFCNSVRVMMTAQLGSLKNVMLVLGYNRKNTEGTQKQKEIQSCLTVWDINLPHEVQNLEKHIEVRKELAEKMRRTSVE
Description: (§1) The assay measures the degradation of wildtype and G2019S LRRK2 tagged with a HiBit tag on the C-terminus of the protein that was expressed from a mammalian expression vector, driven by the ubiquitin promoter in HEK293 cells. Each compound dose-response was repeated on two separate days, on three separate plates each day.
(§2) Plasmid Preparation. Transfection mixes were assembled as follows and incubated for 30 minutes at room temperature. In a 15 mL tube, 5.25 mL Opti-MEM (no additions) was mixed with 17 μL Firefly Luciferase plasmid at 1 μg/μL and 158 μL WT plasmid DNA at 1 μg/μL (175 μg total DNA) were mixed by flicking. In a new 15 mL tube, 5.25 mL OptiMEM was mixed with 17 μL Firefly Luciferase plasmid at 1 μg/μL and 158 μL G2019S plasmid DNA at 1 μg/μL (175 μg total DNA) were mixed by flicking. X-tremeGene HP was mixed thoroughly using a vortex. Next, 175 μL was added to each tube and flicked to mix. Both tubes were left to incubate for 30 minutes at room temperature.
(§3) While the transfection mixes were incubating, HEK293 cells (acquired from ATCC; ATCC CRL-1573) were harvested with trypsin. Once cells are detached, the cells were resuspended in 12 mL OptiMEM+5% FBS and transferred to a 50 mL tube. The cells were mixed well and counted. Using OptiMEM+5% FBS, the cells were diluted in two 250 mL conical tubes at 0.71×10^6 cells/mL in 70 mL. One tube was labeled “WT” and the other “G2019S”. The WT and G2019S transfection mixes were added dropwise to the corresponding 250 mL tubes. The tubes were mixed first by pipetting then by swirling. The tubes were incubated at room temperature for at least 5 minutes.
(§4) Each tube was swirled before dispensing and after every three plates. Seventy microliters of cells were dispensed with WT or G2019S DNA to seven plates each. Three plates of each were tested with compound plate one (preparation described below) and three plates of each were tested with compound plate two (preparation described below). The first plate from each set served as a “prime” plate and was not used to test compounds. Each plate was incubated in the hood for 10 minutes before placing in the 37° C. incubator for 24 hours.
(§5) Preparation of Compound and Assay Plates. Two compound plates were made using 96 well polypropylene plates. Compounds were made up at 10 mM and were diluted to 1 mM in 30 μL. Each dose response curve included a well of DMSO, as a negative control and for normalization, and a well of 0.5 μM of Exemplary Compound 4 as a positive control. In addition to seven test compounds, each plate also included a dose response of Exemplary Compound 4. The compound plates were spun down along at 1200 rpm for 2 minutes.
(§6) The two compound plates were then mixed and 2 μL was diluted in intermediate plates having 248 μL of Opti-Mem in each well. Next, 10 μL diluted compounds from the intermediate plates were added to each test plate (three WT and three G2019S plates per compound plate for a total of 12 assay plates). The plates were incubated for 24 hours at 37° C.
(§7) All assay plates and all Nano-Glo Dual-Luciferase Reporter Assay System components (except for the DLR substrate) were equilibrated to room temperature. Next, the luciferase buffer was mixed with the lyophilized amber bottle until fully dissolved, and 75 μL of the luciferase mixture was added to each well of each assay plate. The assay plates were incubated for 10 minutes at room temperature with shaking for at least 5 minutes, and then read on a plate reader.
(§8) Developing Plates and Analyzing Data. One milliliter of DLR substrate and 1 mL LgBiT Protein were added to the Stop and Glo buffer, and 75 μL of the mixture was added to each well of each plate. Optically clear seals were added to each plate and each plate was incubated for 20 minutes with shaking for at least 10 minutes, and then read on a plate reader. […]

wildtype LRRK2 = biological target: T2, wildtype LRRK2 (Homo sapiens, UniProt Q5S007); test: LRRK2 degradation assay, wildtype LRRK2-HiBit expressed from plasmid in HEK293 cells; assay type: cell-based; conditions: HEK293 cells transfected with HiBit-tagged wildtype LRRK2, 24 hours compound incubation; for Dmax: read-out: **WT Dmax (%); for DC50: read-out: *WT DC50
T2 construct: expressed in transfected cells; host or cells: HEK293 (ATCC CRL-1573), transient transfection, ubiquitin promoter
T2 sequence (Q5S007 whole entry): as the sequence (Q5S007 whole entry G2019S) above, with S2019G counted along it
Description: as §1, §2, §3, §4, §5, §6, §7, §8

Question: How did the DC50 (G2019S LRRK2) turn out when CC(C)Oc1ccc2[nH]nc(-c3cc(N4CCO[C@H](CN5CCN(CC6CCN(c7ccc8c(c7)C(=O)N(C7CCC(=O)NC7=O)C8=O)CC6)CC5)C4)ncn3)c2c1 (stereo partly drawn) [compound 48, 2-(2,6-dioxopiperidin-3-yl)-5-(4-((4-(((R)-4-(6-(5-isopropoxy-1H-indazol-3-yl)pyrimidin-4-yl)morpholin-2-yl)methyl)piperazin-1-yl)methyl)piperidin-1-yl)isoindoline-1,3-dione] was run?
Answer: Its DC50 is < 10 nM.

Question: What about the Dmax (G2019S LRRK2) of the same compound?
Answer: The Dmax was 50 to 70%.

Question: What about the Dmax (wildtype LRRK2) of the same compound?
Answer: The Dmax was 50 to 70%.

Question: And the DC50 (wildtype LRRK2)?
Answer: Its DC50 is < 10 nM.

Question: What does the source list for CC(C)Oc1ccc2[nH]nc(-c3cc(N4CCO[C@@H](CCN5CCN(CC6CCN(c7ccc8c(c7)C(=O)N(C7CCC(=O)NC7=O)C8=O)CC6)CC5)C4)ncn3)c2c1 (stereo partly drawn) [compound 49, 2-(2,6-dioxopiperidin-3-yl)-5-(4-((4-(2-((S)-4-(6-(5-isopropoxy-1H-indazol-3-yl)pyrimidin-4-yl)morpholin-2-yl)ethyl)piperazin-1-yl)methyl)piperidin-1-yl)isoindoline-1,3-dione]?
Answer: DC50 (G2019S LRRK2): < 10 nM; Dmax (G2019S LRRK2): 50 to 70%; Dmax (wildtype LRRK2): ≥ 70%; DC50 (wildtype LRRK2): < 10 nM

Question: What does the source list for C[C@@H]1CN(c2cc(-c3n[nH]c4ccc(OC5(C)CC5)cc34)ncn2)C[C@H](C)N1CCOCCOCCOc1ccc2c(c1)C(=O)N(C1CCC(=O)NC1=O)C2=O (stereo partly drawn) [compound 6, 5-[2-(2-{2-[(2R,6S)-2,6-dimethyl-4-{6-[5-(1-methylcyclopropoxy)-1H-indazol-3-yl]pyrimidin-4-yl}piperazin-1-yl]ethoxy}ethoxy)ethoxy]-2-(2,6-dioxopiperidin-3-yl)-2,3-dihydro-1H-isoindole-1,3-dione]?
Answer: DC50 (G2019S LRRK2): < 10 nM; Dmax (G2019S LRRK2): 50 to 70%; Dmax (wildtype LRRK2): 50 to 70%; DC50 (wildtype LRRK2): < 10 nM

Question: Which DC50 (G2019S LRRK2) does the source give for CC(C)Oc1ccc2[nH]nc(-c3cc(N4CCN(CCN(C)CCCN5CCN(c6ccc7c(c6)C(=O)N(C6CCC(=O)NC6=O)C7=O)CC5)[C@@H](C)C4)ncn3)c2c1 (stereo partly drawn) [compound 36, 2-(2,6-dioxopiperidin-3-yl)-5-(4-{3-[methyl({2-[(2S)-2-methyl-4-{6-[5-(propan-2-yloxy)-1H-indazol-3-yl]pyrimidin-4-yl}piperazin-1-yl]ethyl})amino]propyl}piperazin-1-yl)-2,3-dihydro-1H-isoindole-1,3-dione] here?
Answer: Its DC50 is 10 to 50 nM.

Question: And the Dmax (G2019S LRRK2)?
Answer: Its Dmax is ≥ 70%.

Question: What about the Dmax (wildtype LRRK2) of the same compound?
Answer: Its Dmax is ≥ 70%.

Question: What about the DC50 (wildtype LRRK2) of the same compound?
Answer: Its DC50 is 10 to 50 nM.

Question: CC(C)Oc1ccc2[nH]nc(-c3cc(N4CCN(CCN5CC(CN6CCN(c7ccc8c(c7)C(=O)N(C7CCC(=O)NC7=O)C8=O)CC6)C5)CC4)ncn3)c2c1 (centres unmarked) [compound 45, 2-(2,6-dioxopiperidin-3-yl)-5-(4-((1-(2-(4-(6-(5-isopropoxy-1H-indazol-3-yl)pyrimidin-4-yl)piperazin-1-yl)ethyl)azetidin-3-yl)methyl)piperazin-1-yl)isoindoline-1,3-dione] was tested. Which DC50 (G2019S LRRK2) did it give?
Answer: The DC50 was ≥ 100 nM.

Question: And the Dmax (G2019S LRRK2)?
Answer: Its Dmax is < 50%.

Question: And the Dmax (wildtype LRRK2)?
Answer: The Dmax was < 50%.

Question: What about the DC50 (wildtype LRRK2) of the same compound?
Answer: Its DC50 is 10 to 50 nM.

Question: How did the DC50 (G2019S LRRK2) turn out when C[C@H]1CN(c2cc(-c3n[nH]c4ccc(OC5(C)CC5)cc34)ncn2)CCN1CCOCCOCCOCCOc1ccc(C(=O)NC2CCC(=O)NC2=O)c(F)c1 (stereo partly drawn) [compound 13, N-(2,6-dioxopiperidin-3-yl)-2-fluoro-4-{2-[2-(2-{2-[(2S)-2-methyl-4-{6-[5-(1-methylcyclopropoxy)-1H-indazol-3-yl]pyrimidin-4-yl}piperazin-1-yl]ethoxy}ethoxy)ethoxy]ethoxy}benzamide] was run?
Answer: The DC50 was 10 to 50 nM.

Question: And the Dmax (G2019S LRRK2)?
Answer: Its Dmax is < 50%.

Question: What about the Dmax (wildtype LRRK2) of the same compound?
Answer: The Dmax was < 50%.

Question: And the DC50 (wildtype LRRK2)?
Answer: Its DC50 is 10 to 50 nM.

Question: CC(C)Oc1ccc2[nH]nc(-c3cc(N4CCN(CCN5CC(CCN6CCN(c7ccc8c(c7)C(=O)N(C7CCC(=O)NC7=O)C8=O)CC6)C5)CC4)ncn3)c2c1 (centres unmarked) [compound 46, 2-(2,6-dioxopiperidin-3-yl)-5-(4-(2-(1-(2-(4-(6-(5-isopropoxy-1H-indazol-3-yl)pyrimidin-4-yl)piperazin-1-yl)ethyl)azetidin-3-yl)ethyl)piperazin-1-yl)isoindoline-1,3-dione] was tested. Which Dmax (wildtype LRRK2) did it give?
Answer: Its Dmax is 50 to 70%.

Question: What about the DC50 (wildtype LRRK2) of the same compound?
Answer: Its DC50 is < 10 nM.
